Source: article PMC4446607, “Tilapia Piscidin 4 (TP4) Stimulates Cell Proliferation and Wound Closure in MRSA-Infected Wounds in Mice” (Marine Drugs, 2015)

What was measured:
MRSA = test: Mouse model of MRSA sepsis (survival, lethality, bacterial counts in organs); assay type: in vivo, Staphylococcus aureus; conditions: for Survival rate at eight days after MRSA infection: i.p. treatment 10 min later: TP4 0.005 mg/g, vancomycin 0.01 mg/g, methicillin 0.01 mg/g; for Survival rate at eight days after MRSA infection / % lethality: n = 10; for Mean ± SD Count (CFU/mL) Blood / Mean ± SD Count (CFU/mL) Liver / Mean ± SD Count (CFU/mL) Mesenteric Lymph Nodes / Mean ± SD Count (CFU/mL) Peritoneum / Mean ± SD Count (CFU/mL) Spleen / % lethality: MRSA-infected mice, TP4 0.005 mg/g, methicillin or vancomycin 0.01 mg/g; for Mean ± SD Count (CFU/mL) Blood / Mean ± SD Count (CFU/mL) Liver / Mean ± SD Count (CFU/mL) Mesenteric Lymph Nodes / Mean ± SD Count (CFU/mL) Peritoneum / Mean ± SD Count (CFU/mL) Spleen: 48 h after i.p. treatment; for % lethality: monitored for 2 day following i.p. injection
Protocol: (§1) An MRSA strain commonly associated with human wound infections was selected to generate a polymicrobial solution [32]. The MRSA strain is a clinical isolate from stool obtained from Taipei City Hospital (Heping Fuyou branch). The strain was identified by routine laboratory methods and stored in 20% (vol/vol) glycerol at −80 °C. Tryptic Soy Broth (TSB) was used as the culture medium. HaCaT human keratinocyte cell line and Hs-68 human foreskin fibroblast cell line were grown in DMEM containing 10% (v/v) FBS, 0.37% (w/v) NaHCO3, penicillin (100 unit/mL), streptomycin (100 μg/mL), 0.1 mM NEAA, and 1 mM sodium pyruvate at 37 °C in a humidified incubator under 5% CO2 and 95% air. The cells were harvested at ca. 90% confluence (ca. 10^6 cells/10-cm dish). Balb/c female mice were used for the experiments. All mice were housed in cages under specific pathogen-free conditions, and given water and standard laboratory chow ad libitum during the experiments. All animal handing procedures were in accordance with National Taiwan Ocean University (NTOU) guidelines. All procedures were approved by the Animal Care and Use Committee of NTOU.
Female Balb/c mice (6–8 weeks old) were injected intraperitoneally with 10^6 CFU MRSA per mouse. Ten minutes after MRSA injection, mice were injected intraperitoneally with vancomycin (0.01 mg/g mouse body weight), methicillin (0.01 mg/g mouse body weight), or TP4 (0.005 mg/g mouse body weight). In a second set of experiments, mice were given intraperitoneal injections of TP4 (0.005 mg/g mouse body weight) at 10, 60, 120, or 180 min after MRSA injection. Survival rate and status were recorded every 24 h for up to 192 h. To examine bacterial dissemination, mice were sacrificed at 48 h after injection with antibiotics or TP4, and the bacterial numbers in blood, peritoneum, spleen, liver, and mesenteric lymph nodes were recorded. Colony counts from the diluted bacterial solutions were expressed relative to those at the start of treatment. These experiments consisted of four groups, and each group contained 10 mice.

[1] = test system: EGF, TGF-β and VEGF gene expression in wound tissue; test: Real-time RT-PCR of EGF, TGF-β and VEGF gene expression in wound tissue of MRSA-infected mice; assay type: in vivo
Protocol: (§2) Total RNA was isolated from HaCaT and Hs-68 cells, and purified using a Qiagen RNeasy kit. Reverse transcription into cDNA was performed with an iScript cDNA Synthesis Kit (Cat. No. 1708991; BIO-RAD, Hercules, CA, USA) according to the manufacturer’s recommendations. Real-time polymerase chain reaction (PCR) was performed to analyze gene expression, using […] of cDNA, 2× iQSYBR® Green Supermix (Cat. No. 1708882; BIO-RAD, Hercules, CA, USA), and 500 nM of forward and reverse primers against selected genes or GAPDH (reference gene), according to the instructions of the manufacturer. Quantitative PCR was performed under the following conditions: 40 cycles of 1 min at 95 °C, 30 s at 55 °C, and 1 min at 72 °C. The threshold cycle number (Ct) was calculated with BIO-RAD software. Relative transcript quantities were calculated using the ΔCt method with GAPDH as the internal reference gene. ΔCt is the difference in the threshold cycles of messenger (m) RNA for selected genes relative to those of GAPDH mRNA. Real-time PCR was performed in triplicate for each experimental group.
Tracings were taken immediately after injury. For uncontaminated wounds, wound size was determined every second day. […] Wound areas were determined using the Macintosh Adobe Photoshop program, Histogram Analysis. The percentage of wound contraction was calculated as follows: % Wound contraction = (A0 − At)/A0× 100, where A0 is the original wound area, and At is the area of wound at the time of biopsy, accordingly. Cell proliferation gene expression was performed by real-time PCR, using the methods described in Section 4.4 above.

[2] = test system: collagen I, collagen III and KGF gene expression in Hs-68 cells; test: Real-time qPCR of collagen I, collagen III and KGF gene expression in Hs-68 cells; assay type: cell-based, human; conditions: TP4 6.25 μg/mL, 48 h, GAPDH reference
Protocol: as §2

MRSA-infected wounds = test: Mouse model of wound healing, full-thickness wounds contaminated with MRSA (wound closure); assay type: in vivo, Balb/c mice
Protocol: Female Balb/c mice (6–8 weeks old) were used for wound healing experiments. All mice were housed individually to prevent fighting and further damage to the wounds, and they were provided with food and water ad libitum. Mice were maintained on a 12 h light: dark cycle at room temperature, and acclimatized to the environment for at least a week before use in experiments. All researchers wore caps, sterile gloves, gowns, and shoe covers when handling mice. Hair was removed from the back of the mice by shaving, and a full thickness wound (1 cm in diameter) was then created in the exposed region. Each wound was inoculated with 50 µL of broth mix containing 10^6 CFU (colony forming units) of MRSA. At 5 min after inoculation, 50 µL TP4 (2 mg/mL) in a total volume of 0.1 mL were applied to the wound. […] Animals were subsequently euthanized by CO2 inhalation and the wounds assessed. […] Each wound was measured and then removed from the animal, with unwounded skin taken from the contralateral dorsum as a control. Each biopsy was divided into six sections, with three sections being used for tensiometry and histology, and three sections for quantitative determination of microbial load. […]
Tracings were taken immediately after injury. For uncontaminated wounds, wound size was determined every second day. […] Wound areas were determined using the Macintosh Adobe Photoshop program, Histogram Analysis. […]

[3] = test system: keratin 10 and keratin 17 gene expression in HaCaT cells; test: Real-time qPCR of keratin 10 and keratin 17 gene expression in HaCaT cells; assay type: cell-based, human; conditions: TP4 6.25 µg/mL, 48 h, GAPDH reference
Protocol: as §2

[4] = test system: TNF, IL-6 and IL-1 in serum; test: Serum cytokines (TNF, IL-6, IL-1) by ELISA in mice with MRSA-infected wounds; assay type: in vivo; conditions: MRSA-infected wound
Protocol: Female Balb/c mice (6–8 weeks old) were used for wound healing experiments. All mice were housed individually to prevent fighting and further damage to the wounds, and they were provided with food and water ad libitum. Mice were maintained on a 12 h light: dark cycle at room temperature, and acclimatized to the environment for at least a week before use in experiments. All researchers wore caps, sterile gloves, gowns, and shoe covers when handling mice. Hair was removed from the back of the mice by shaving, and a full thickness wound (1 cm in diameter) was then created in the exposed region. Each wound was inoculated with 50 µL of broth mix containing 10^6 CFU (colony forming units) of MRSA. At 5 min after inoculation, 50 µL TP4 (2 mg/mL) in a total volume of 0.1 mL were applied to the wound. Thirty minutes after treatment, wounds were covered with Tegaderm (3 M, St. Paul, MN, USA) to maintain uniformity, and to prevent the mice from removing the treatments. Based on initial experiments, we examined the wounds at 3, 7, 14, and 21 days post-injury, so as not to disturb the infection. Such examinations captured the transitions from inflammatory to regenerative, and regenerative to resolving phases of wound healing. Animals were subsequently euthanized by CO2 inhalation and the wounds assessed. Four individuals in each group were examined at each time point for each experiment. Each wound was measured and then removed from the animal, with unwounded skin taken from the contralateral dorsum as a control. Each biopsy was divided into six sections, with three sections being used for tensiometry and histology, and three sections for quantitative determination of microbial load. Wound healing studies were repeated in triplicate.
Skin tissues were removed and fixed as previously described. In brief, the cryosections were fixed with 4% formaldehyde, and the tissue samples were stained with VEGF. IHC was analyzed by three independent investigators. Images were taken using a BX-51 microscope (Olympus, Japan). ELISA was performed as previously described.

[5] = test system: Hs-68 human foreskin fibroblast cell line; assay type: cell-based
Protocol: as §1
(§3) Cells were cultured at a density of 5 × 10^4 cells per well in flat-bottomed 96-well plates, and supplemented with various combinations of TP4. After 24 h, cell viability were measured with neutral red (Cat. No. N4638; Sigma, St. Louis, MO, USA) uptake assay, Cytotoxicity Detection Kit (LDH) (Cat. No. 11644793001; Roche Applied Science, Indianapolis, IN, USA), and CellTiter 96 Aqueous One Solution (Cat. No. G1111; Promega, Madison, WI, USA), following the vendors’ instructions.

[6] = test system: HaCaT human keratinocyte cell line; assay type: cell-based; conditions: HaCaT cells
Protocol: as §1, §3

[7] = Balb/c mice, MRSA 1 × 10^6 CFU/mouse i.p.
[8] = Balb/c mice, MRSA 1 × 10^6 CFU/mouse i.p., TP4 0.005 mg/g i.p.

Compound | Survival rate at eight days after MRSA infection (MRSA; [7]) | Mean ± SD Count (CFU/mL) Blood (MRSA) | Mean ± SD Count (CFU/mL) Liver (MRSA) | Mean ± SD Count (CFU/mL) Mesenteric Lymph Nodes (MRSA) | Mean ± SD Count (CFU/mL) Peritoneum (MRSA) | Mean ± SD Count (CFU/mL) Spleen (MRSA) | % lethality (MRSA) | further results
COc1cccc(OC)c1C(=O)N[C@@H]1C(=O)N2[C@@H]1SC(C)(C)[C@@H]2C(=O)O [methicillin] | 0% | 4.1 × 10^7 ± 1.3 × 10^7 B CFU/mL | 2.7 × 10^8 ± 3.3 × 10^6 B CFU/mL | 4.1 × 10^7 ± 3 × 10^7 C CFU/mL | 2.3 × 10^9 ± 2 × 10^8 B CFU/mL | 1.5 × 10^8 ± 2.1 × 10^7 B CFU/mL | 20 ^B % | 
H-FIHHIIGGLFSAGKAIHRLIRRRRR-OH [TP4, Tilapia piscidin 4] | 100% | 0 ^A CFU/mL | 2.4 × 10^6 ± 1 × 10^6 A CFU/mL | 6 × 10^5 ± 1 × 10^5 A CFU/mL | 1 × 10^6 ± 1 × 10^6 A CFU/mL | 3 × 10^6 ± 1.2 × 10^6 A CFU/mL | 0 ^A % | EGF gene expression compared to control and vancomycin-treated mice ([1]; 3 days post-infection): enhanced gene expression; VEGF gene expression compared to control and vancomycin-treated mice ([1]; 14 days post-infection): enhanced gene expression; TGF gene expression compared to control and vancomycin-treated mice ([1]; seven days post-infection): enhanced gene expression; Collagen I gene expression versus untreated controls [2]: enhanced; Collagen III gene expression versus untreated controls [2]: enhanced; KGF gene expression versus untreated controls [2]: enhanced; Wound size by 14 days (MRSA-infected wounds; MRSA-contaminated wounds, P < 0.05): smaller than that of the vancomycin-treated group; Wound closure compared with the control (MRSA-infected wounds; contaminated wounds (increase not observed in uncontaminated wounds)): accelerated; Survival rate, TP4 injected 10 min after MRSA (MRSA; [8]): 100%; Survival rate, TP4 injected 60 min after MRSA (MRSA; [8]): 80%; Survival rate, TP4 injected 120 min after MRSA (MRSA; [8]): 60%; Survival rate, TP4 injected 180 min after MRSA (MRSA; [8]): 50%; Keratin 10 gene expression versus untreated controls [3]: significantly increased; Keratin 17 gene expression versus untreated controls [3]: did not affect; IL-1 compared with control wounds [4]: statistically significant enhancement; Induction of IL-6 compared to MRSA-infected positive controls ([4]; three days after treatment): decreased induction; Induction of TNF compared to MRSA-infected positive controls ([4]; three days after treatment): decreased induction; TP4 concentration at which stimulation of proliferation / gene expression was detectable ([5]; Hs-68 cells): 6.25 µg/mL; Doses at which Hs-68 cell proliferation was significantly increased ([5]; change in cell viability compared to the untreated group, neutral red, LDH, MTT): 2.5~10 μg/mL; TP4 concentration at which stimulation of proliferation / gene expression was detectable [6]: 6.25 µg/mL
CN[C@H](CC(C)C)C(=O)N[C@H]1C(=O)N[C@@H](CC(N)=O)C(=O)N[C@H]2C(=O)N[C@H]3C(=O)N[C@H](C(=O)N[C@H](C(=O)O)c4cc(O)cc(O)c4-c4cc3ccc4O)[C@H](O)c3ccc(c(Cl)c3)Oc3cc2cc(c3O[C@@H]2O[C@H](CO)[C@@H](O)[C@H](O)[C@H]2O[C@H]2C[C@](C)(N)[C@H](O)[C@H](C)O2)Oc2ccc(cc2Cl)[C@H]1O [vancomycin] | 80% | 8 × 10^4 ± 1.1 × 10^4 B CFU/mL | 1.3 × 10^7 ± 1.8 × 10^5 B CFU/mL | 1 × 10^7 ± 4 × 10^6 B CFU/mL | 1.5 × 10^6 ± 1 × 10^5 A CFU/mL | 1.4 × 10^7 ± 1.1 × 10^6 B CFU/mL | 10% | 
